Reference: patent US8222260B2, “Substituted 6-anilinopurine derivatives as inhibitors of cytokinin oxidase/dehydrogenase and preparations containing these derivatives” (Univerzita Palackego V Olomouci, priority 2007, dated 2012)

Key:
[1] = test system: Human diploid fibroblasts HCA; test: Anti-aging activity: senescence-associated beta-galactosidase in human fibroblasts; format: cell-based
Description: In this example, effects of the compounds of this invention on the activity of a senescence biomarker senescence-associated β-galactosidase was studied. Human diploid fibroblasts HCA of various passage levels were used for this purpose. The tested compounds were added to the medium at each passage. After the incubation period, cells were washed with PBS and fixed with 2% formaldehyde and 0.2% glutaraldehyde in PBS. After another wash with PBS, they were incubated with the staining solution comprising potassium ferricyanide (5 mM), potassium ferrocyanide (5 mM), MgCl2 (2 mM), X-gal (5-bromo-4-chloro-3-indolyl-β-D-galactopyranoside) (1 mg/ml), in citric/phosphate buffer (pH 6.0) at 37° C. (without CO2) for at least 1 hour. Following the incubation period, the numbers of cells expressing senescence-associated β-galactosidase (blue cells) were counted using light microscope.

[2] = test system: Salmonella typhimurium TA98 and TA100; test: Ames test; format: cell-based; settings: 2.5 to 5000 μg/plate
Description: Amest test was used in order to exclude mutagenic effect of 2-chloro-6-(4-hydroxyanilino)purine. Histidin auxotrophs of Salmonella typhimurium TA98 and TA100 were used as indicator strains and the test was carried out according to standard protocols (Ames et al., Mutation Research, 31, 347-364 (1975); Maron et al., Mutation Research, 113, 173-215 (1983)). Tested concentrations were as follows: 2.5, 5.0, 15, 50, 500, 1500, a 5000 μg/plate. The compound was not mutagenic even in the concentrations exceeding its solubility limit in the culture medium.

[3] = test system: Rat C6 glioma (ATCC No. CCL107); test: Anti-inflammatory activity: isoproterenol-induced cAMP synthesis (ELISA); format: cell-based; settings: cAMP after 30 min, induced by (−)-isoproterenol
Description: Anti-inflammatory activity of several of the substituted 6-anilinopurine derivatives of this invention was determined; kinetin was also evaluated as a control. Rat C6 glioma (ATCC No. CCL107) was cultivated in monolayer in serum-free chemically defined medium containing Ham's F10/minimal essential medium (1:1 v/v), 2 mM L-glutamine, 1% (v/v) minimal essential medium vitamins (100×), 1% (v/v) minimal essential medium nonessential amino acids (100×), 100 U/ml penicillin, […], and 30 nM sodium selenite. Incubation was performed at 37° C. in a 100% humidified atmosphere. The assays were performed in the logarithmic growth phase at a density of 2.5×10^5 cells/cm^2. Intracellular cAMP synthesis was induced by addition of 5 mM (−)-isoproterenol; various amounts of test compounds were added at the same time as the (−)-isoproterenol. After 30 min incubation, the cellular amount of cAMP was determined using ELISA (cAMP-enzyme immunoassay kit from Amersham). The I50 values were determined from the dose-response curve in duplicate.

[4] = test system: osteosarcoma cell line HOS; test: Calcein AM cytotoxicity assay; format: cell-based, human; settings: 72 hours
Description: (§1) Absence of toxic effects against mammalian (especially human) cell lines in a wide concentration range is one of the requirements on compounds intended for use in agriculture and medicine. Because toxic compounds negatively influence metabolic processes in cells, many standard cytotoxicity assays are based on measurement of metabolisation rate of various artificial substrates. Resulting product is then quantified e.g. by means of spectrometry. The assays can be easily modified for use in 96-well plates. For evaluation of cytotoxic effect of compounds of this invention, a microtiter assay based on quantification of metabolisation of Calcein AM was used. The assay is widely used in drug screening programs and in chemosensitivity testing. In live cells, Calcein AM is enzymatically hydrolysed and accumulation of resulting calcein is manifested by green fluorescence.
(§2) Following human cell lines were used for routine screening of the compounds: T-lymphoblastic leukemia cell line CEM, promyelocytic leukemia cell line HL-60, erytroid leukemia cell line K-562, breast carcinoma cell line MCF-7, osteosarcoma cell line HOS and melanoma cell line G-361. Mouse cell lines B16-F10 (melanoma) and NIH-3T3 (fibroblasts) were used as well. The cells were maintained in Nunc/Corning 80 cm^2 plastic tissue culture flasks and cultured in cell culture medium (DMEM with 5 g/l glucose, 2 mM glutamine, 100 U/ml penicillin, 100 μg/ml streptomycin, 10% fetal calf serum and sodium bicarbonate).
(§3) The cell suspensions were prepared and diluted according to the particular cell type and the expected target cell density (2.500-30.000 cells per well based on cell growth characteristics) and pippetted (80 μl) into 96-well plates. Inoculates were allowed a pre-incubation period of 24 hours at 37° C. and 5% CO2 for stabilisation. Tested compound was added in total volume of 20 μl of water at time zero. Usually, test compound was evaluated at six 3-fold dilutions. In routine testing, the highest concentration tested was 166.6 μM. All drug concentrations were tested in triplicates. Incubations of cells with the test compounds lasted for 72 hours at 37° C., in 5% CO2 atmosphere and 100% humidity. At the end of incubation period Calcein AM in PBS was added into final concentration of 1 μg/ml. After another 1 hour of incubation fluorescence (FD) was measured with the Labsystem FIA Reader Fluoroscan Ascent (UK). Growth inhibition (GI) was estimated using the following equitation: GI=(mean FDdrug exposed wells−mean FDblank)/(mean FDcontrol wells−mean FDblank)×100%. The GI50 value, the drug concentration causing 50% reduction of Calcein AM conversion, was calculated from the obtained dose response curves.

[5] = test system: erytroid leukemia cell line K-562; test: Calcein AM cytotoxicity assay; format: cell-based, human; settings: 72 hours
Description: as §1, §2, §3

melanoma cell line G-361 = test: Calcein AM cytotoxicity assay; format: cell-based, human; settings: 72 hours
Description: as §1, §2, §3

[6] = test system: T-lymphoblastic leukemia cell line CEM; test: Calcein AM cytotoxicity assay; format: cell-based, human; settings: 72 hours
Description: as §1
(§4) Mouse cell lines B16-F10 (melanoma) and NIH-3T3 (fibroblasts) were used as well. The cells were maintained in Nunc/Corning 80 cm^2 plastic tissue culture flasks and cultured in cell culture medium (DMEM with 5 g/l glucose, 2 mM glutamine, 100 U/ml penicillin, 100 μg/ml streptomycin, 10% fetal calf serum and sodium bicarbonate).
as §3, with “In routine testing, the highest concentration tested was 166.6 μM.” left out, “FDblank)×100%.” for “FDblank)×100%. The GI50 value, the drug concentration causing 50% reduction of Calcein AM conversion, was calculated from the obtained dose response curves.”

[7] = test system: promyelocytic leukemia cell line HL-60; test: Calcein AM cytotoxicity assay; format: cell-based, human; settings: 72 hours, read-out: GI50 HL60
Description: as §1, §4
as §3, with “In routine testing, the highest concentration tested was 166.6 μM.” left out, “FDblank)×100%.” for “FDblank)×100%. The GI50 value, the drug concentration causing 50% reduction of Calcein AM conversion, was calculated from the obtained dose response curves.”

[8] = test system: breast carcinoma cell line MCF-7; test: Calcein AM cytotoxicity assay; format: cell-based, human; settings: 72 hours, read-out: GI50 MCF7
Description: as §1, §4
as §3, with “In routine testing, the highest concentration tested was 166.6 μM.” left out, “FDblank)×100%.” for “FDblank)×100%. The GI50 value, the drug concentration causing 50% reduction of Calcein AM conversion, was calculated from the obtained dose response curves.”

B16-F0 = test: Calcein AM cytotoxicity assay; format: cell-based, Mouse; settings: 72 hours
NIH-3T3 (fibroblasts) = test: Calcein AM cytotoxicity assay; format: cell-based, Mouse; settings: 72 hours
Description: as §1, §4
as §3, with “In routine testing, the highest concentration tested was 166.6 μM.” left out, “FDblank)×100%.” for “FDblank)×100%. The GI50 value, the drug concentration causing 50% reduction of Calcein AM conversion, was calculated from the obtained dose response curves.”

Compound | Senescent Cells (%) HCA passage 25 ([1]; passage 25, cells expressing senescence-associated beta-galactosidase) [%] | Senescent Cells (%) HCA passage 50 ([1]; passage 50, cells expressing senescence-associated beta-galactosidase) [%] | Senescent Cells (%) HCA passage 80 ([1]; passage 80, cells expressing senescence-associated beta-galactosidase) [%] | mutagenic effect [2] | IC50 ([3]; Rattus norvegicus, C6 glioma, 0.5 h, read-out: I50) [µM] | Effect (anti-inflammatory activity) [3] | GI50 [4] [µM] | GI50 [5] [µM] | GI50 (melanoma cell line G-361) [µM] | GI50 [6] [µM] | GI50 [7] [µM] | GI50 [8] [µM] | GI50 (B16-F0) [µM] | GI50 (NIH-3T3 (fibroblasts)) [µM]
Oc1ccc(Nc2nc(Cl)nc3nc[nH]c23)cc1 [Compound 10, 2-chloro-6-(4-hydroxyanilino)purine] | 4 | 6 | 22 | not mutagenic | 13 | Inhibition |  |  |  |  |  |  |  | 
Oc1cccc(CNc2ncnc3nc[nH]c23)c1 [meta-topolin, reference compound] |  |  |  |  |  |  | > 167 | 128 | > 167 | 90.1 | 79.2 | > 167 | 90.6 | > 167
Oc1ccccc1CNc1ncnc2nc[nH]c12 [ortho-topolin, reference compound] |  |  |  |  |  |  | > 167 | > 167 | 103 | 69.2 | 78 | > 167 | 150 | > 167
